How the values were obtained:
pancreatic cancer = test: Administration to a human patient, pancreatic cancer; type: in vivo; conditions: 30 g/day; in approximately 1 and a half months
From the text: In approximately 1 and a half months, the patient recovered.

gastric cancer = test: Administration to human patients, gastric cancer; type: in vivo
From the text: Patient, gastric cancer had metastasized in the liver; countless cancer cells metastasized and dispersed in the liver.
Gastric cancer was detected as a result of a detailed examination, extirpated soon after the discovery, cancer as large as a head of a fetus was removed. Scattered additionally in the peritoneal cavity: Life expectancy was 3-6 months.
person, metastasized in the pancreas and peritoneum.

ovarian cyst = test: Administration to human patients, ovarian cyst (ultrasonography, MRI); type: in vivo
From the text: A case of a patient whose uterus was extirpated due to uterine myoma. This patient has had two celitomies with a caesarean section. They received an examination for cancer because abnormal bleeding has continued recently. […] Moreover, a prominent part was found in part of the cyst and it was suspected to be malign (Photograph (1)).
The size of the ovarian cyst measured with ultrasonography carried out a few days later was reduced down to approximately 4 cm (Photograph (2)).
A case of a patient whose wedding day was drawing close. […] In consideration that hormone abnormalities were the cause, follow-ups were made for 2-3 weeks. Carrying out a subsequent examination, the ovary was further swollen to 6.5 cm (Photograph 5).

uterine/ovarian cancer = test: Administration to a human patient, uterine/ovarian cancer with ileus; type: in vivo
Method: Person, two years ago, the uterus was extirpated, the ovary and fallopian duct were resected and chemotherapy was performed 3 times. During hospitalization, an ileus tube was inserted due to an ileus. Then intestinal liquid and gas were emitted. A central nutrition tube was inserted into the right subclavian vein because oral ingestion was impossible. An artificial anus and urinary duct tube were attached due to a tumor in the left abdomen. […] Cancerous pain ameliorated and the ingestion of solid food from 3/10- 5/10- 7/10-whole porridge was enabled. Discharged from the hospital 3 months later.

liver cancer = test: Administration to human patients, liver cancer; type: in vivo; conditions: male
breast cancer = test: Administration to human patients, breast cancer; type: in vivo; conditions: 20 g/day for 210 days
From the text: After extirpation, metastasized to the eye.
person, metastasized to the bone marrow.

bladder cancer = test: Administration to human patients, bladder cancer; type: in vivo
[1] = system: pulmonary cancer metastasis lymphoma; test: Administration to a human patient, pulmonary cancer metastasis lymphoma; type: in vivo; conditions: person; 15 g/day for 180 days
subclavian lymphoma = test: Administration to a human patient, subclavian lymphoma; type: in vivo; conditions: female, 50 g/day for 90 days
cervical malign lymphoma = test: Administration to a human patient, cervical malign lymphoma; type: in vivo; conditions: person; 20 g/day for 360 days
leukemia = test: Administration to human patients, leukemia; type: in vivo; conditions: person
endometriosis = test: Administration to human patients, endometriosis; type: in vivo
[2] = system: diabetes/rheumatism/hypertension; test: Administration to a human patient, diabetes/rheumatism/hypertension; type: in vivo; conditions: person; 15 g/day for 30 days, then up to 20 g/day
[3] = system: bone-thinning disease osteoporosis; test: Administration to a human patient, osteoporosis; type: in vivo; conditions: person; 6 g/day for 180 days
[4] = system: periodontal disease bacteria; test: Control of proliferation of periodontal disease bacteria
baldness = test: Spray and oral powder, baldness; type: in vivo, human; conditions: spray twice a day (10 g in terms of CPL powder) and 10 g/day orally for approximately 50 days
From the text: The said spraying agent was sprayed on a bald part of a head.

cancer = test: Several hundreds of patients suffering from cancer taking CPL; type: in vivo, human; conditions: 10-20 g/day
pyruvic acid kinase = test: Inhibition of pyruvic acid kinase activity; type: biochemical; conditions: enzyme of the anaerobic glycolytic pathway
From the text: Morphologically, it causes vacuolation, and the expansion of the cytoplasm of cells, disintegration and aggregation of the nucleus. […] These are considered to inhibit not only the synthesis of ATP but also the actions of mRNA and be involved in the synthesis of RNA and DNA, and the generation of intracellular energy by acting on the metabolism of the intracellular organelle such as rough-surfaced endoplasmic reticulum, smooth-surfaced endoplasmic reticulum, ribosome, Golgi apparatus, etc., and as a result, controlling the metabolism of the cells, influencing the synthesis of proteins/glycoprotein, intracellular lipid metabolism, and movement and transport of ions. […] Morphologically, in the case that cells end up degenerating, the degeneration generally changes first to the nucleus followed by the cytoplasm.

lipid metabolism system = test: Effects of CPL ingestion on lipid metabolism; type: in vivo
constipation = test: Bowel movement and constipation during ingestion; type: in vivo, human; conditions: CPL ingestion; laxative discontinued
lung cancer = test: MIRS values in a patient suffering from lung cancer before and after taking CPL; type: in vivo, human; conditions: after taking CPL; FIG. 15
From the text: In addition, changes in MIRS values in a patient suffering from lung cancer before and after taking CPL.

ketosis = test: Administration to bovines, ketosis (obese syndrome); type: in vivo, bovine; conditions: 100 g/day mesothiol 10 days before delivery, then 100g/day of CPL in combination for 7 days after delivery
Method: For 10 days before the expected date of delivery, 100 g/day of mesothiol was administered in bovines with ketosis.

pneumonia = test: Administration to bovine, pneumonia; type: in vivo; conditions: 20 g/day for 1-2 days
diarrhea = test: Administration to calves, diarrhea; type: in vivo, bovine
From the text: Diarrhea frequently occurred in calves when changing to the milk substitute, which is thought to inhibit normal development of the calves. Then farmers may suffer a serious loss.

What does the source list for Cyclic Poly-lactate [CPL]?
outcome of patient with pancreatic cancer considered incurable (pancreatic cancer): recovered; cancer blocks metastasized in the liver (gastric cancer; male, gastric cancer metastasized in the liver, CPL for 2 weeks): necrotized; course of terminal inoperable gastric cancer (gastric cancer; person, metastasized in pancreas and peritoneum, 30 g/day for 150 days): progressing satisfactorily; recurrence after extirpation of gastric cancer (gastric cancer; scattered in peritoneal cavity, life expectancy 3-6 months, 10 g/day for 5 months): no sign of a recurrence; ovarian cyst at preoperative MRI examination (ovarian cyst; patient, 30-40 g/day until operation): disappeared; size of ovarian cyst by ultrasonography (ovarian cyst; patient, 30-40 g/day, a few days later, initially approximately 5 cm): approximately 4 cm; ovarian cyst after further administration (ovarian cyst; person, 2 weeks after further administration): disappeared completely; size of ovarian cyst by ultrasonography (ovarian cyst; person, CPL for 2 weeks, 6.5 cm before): below 4 cm; excretion of gas, defecation and amount of urine (uterine/ovarian cancer; person with ileus, 4-6 g/day): increased; ileus symptoms (uterine/ovarian cancer; person, 7 days later): negative; recurrence of ileus symptoms (uterine/ovarian cancer; person, discharged 3 months later): No recurrent ileus symptoms; cancerous pain (uterine/ovarian cancer; person, oral ingestion 15-20 g/day): ameliorated; outcome of liver cancer (liver cancer; 20 g/day for 150 days): cured; outcome of liver cancer originated from liver cirrhosis (liver cancer; 20 g/day for 210 days): cured; course of breast cancer metastasized to the eye (breast cancer; after extirpation): satisfactory progress; tumor marker (breast cancer; person, breast cancer metastasized to bone marrow, decreased from 200): 5; examination findings and recurrence of bladder cancer (bladder cancer; male, resection performed 5 times, 20-30 g/day for 50 days): no abnormal findings from examinations, nor a recurrence; course of bladder cancer (bladder cancer; person, 40-50 g/day for 270 days): improved from the terminal stage; course of pulmonary cancer metastasis lymphoma [1]: satisfactory progress; CEA (subclavian lymphoma; decreased from 20.4): 5.4; CA 15 (subclavian lymphoma; decreased from 70): 20.3; outcome of cervical malign lymphoma (cervical malign lymphoma): cured; outcome of leukemia (leukemia; 15-20 g/day for 170 days): cured; outcome of leukemia (leukemia; 15 g/day for 5 months): cured; outcome of leukemia (leukemia; 15 g/day for 220 days): cured; recurrence of leukemia (leukemia; for 2 years onwards): No recurrence; CA125 of tumor marker (endometriosis; endometriosis patients, in the majority of the patients): improves; symptoms of menorrhagia (endometriosis; person, 10 g/day orally): ameliorated; menstrual pain (endometriosis; person, 10 g/day orally, next menstruation): ameliorated; need for dialysis [2]: dialysis was not necessary; bone density [3]: increased; controlling the proliferation of periodontal disease bacteria [4]: effective; hair growth on bald part of head (baldness): hair growth is achieved; findings of ameliorated adverse reactions, macrobiotic effects and suggestion of a cure (cancer): observed in the majority; activity of pyruvic acid kinase (pyruvic acid kinase): inhibits; fatty acid composition of triglyceride (lipid metabolism system): changes; defecation of patients suffering from constipation (constipation): improved defecation; MIRS values in patient suffering from lung cancer (lung cancer): increased significantly; level of γGTP (ketosis; 100 in onset): 35; level of GOT (ketosis; 549 in onset): 83; symptom of pneumonia (pneumonia): improved; outcome of diarrhea in calves changing to milk substitute (diarrhea; 20-30 g/day): recovered completely; diarrhea in calves that took CPL (prevention) (diarrhea; 20 g/day for the first 4-5 days): spontaneously cured; time to complete recovery after CPL administration (diarrhea; calves, 20-30 g/day): approximately 3 days

— US20060211764A1, “Cell activator, process for producing cell activator and apparatus therefor” (priority 2002, published 2006)
